Results taken from ChEMBL document CHEMBL4699592, “Nature-Inspired (di)Azine-Bridged Bisindole Alkaloids with Potent Antibacterial In Vitro and In Vivo Efficacy against Methicillin-Resistant Staphylococcus aureus” (J Med Chem, 2020).
≈ marks a conversion by molar mass, not a printed value. Calls of active or inactive are those of the source. The calls are words filed in the database; no cut-off is given here.

Legend:
[1] = Selectivity index, ratio of IC50 for cytotoxicity against human THP-1 cells to MIC90 for antibacterial activity against […] Staphylococcus aureus ATCC 700699; format: toxicity, cell-based; conditions: read-out: Selectivity Index
MRC5 = experiment: Cytotoxicity against human MRC5 cells assessed as reduction in cell viability at >=12.5 uM measured after 48 hrs by resazurin dye based fluorescence assay; conditions: mrc5, 48 h
THP-1 = experiment: Cytotoxicity against human THP-1 cells assessed as reduction in cell viability at >=12.5 uM measured after 48 hrs by resazurin dye based fluorescence assay; conditions: thp-1, 48 h
Enterococcus faecium = experiment: Antibacterial activity against vancomycin-resistant Enterococcus faecium ATCC 35667 at 0.78 to 100 uM after 24 hrs by broth microdilution method; format: functional, organism-based; conditions: dose microM 0.78-100, time 24.0 hrs
Acinetobacter baumannii [2] = experiment: Antibacterial activity against Acinetobacter baumannii ATCC BAA-1605 at 0.78 to 100 uM after 24 hrs by broth microdilution method; format: functional, organism-based; conditions: dose microM 0.78-100, time 24.0 hrs
[3] = test system: Mycobacterium tuberculosis; experiment: Antibacterial activity against Mycobacterium tuberculosis H37Rv at 0.78 to 100 uM after 5 days by resazurin dye based fluorescence assay; format: functional, organism-based; conditions: dose microM 0.78-100, time 5.0 day
Staphylococcus aureus [4] = experiment: Antibacterial activity against […] Staphylococcus aureus ATCC 700699 after 24 hrs by broth microdilution method; format: functional
[5] = Solubility of compound in pH 7.7 PBS buffer; format: physicochemical
[6] = Selectivity index, ratio of IC50 for cytotoxicity against human MRC5 cells to MIC90 for antibacterial activity against […] Staphylococcus aureus ATCC 700699; format: toxicity, cell-based; conditions: read-out: Selectivity Index
HEK293 = experiment: Cytotoxicity against HEK293 cells assessed as reduction in cell viability at >12.5 uM measured after 48 hrs by resazurin dye based fluorescence assay; conditions: human, hek293, 48 h
HepG2 = experiment: Cytotoxicity against human HepG2 cells assessed as reduction in cell viability at >12.5 uM measured after 48 hrs by resazurin dye based fluorescence assay; conditions: hepg2, 48 h
[7] = Cytotoxicity against human CLS-54 cells assessed as reduction in cell viability at >12.5 uM measured after 48 hrs by resazurin dye based fluorescence assay; conditions: cls-54, 48 h
Erythrocyte = experiment: Hemolytic activity against sheep erythrocytes up to 100 uM measured after 1 hr; format: ADME, cell-based, Ovis aries
Pseudomonas aeruginosa [8] = experiment: Antibacterial activity against Pseudomonas aeruginosa ATCC 27853 measured after 24 hrs by broth microdilution method; format: functional
Escherichia coli [9] = experiment: Antimicrobial activity against Escherichia coli ATCC BAA 2469 after 24 hrs by broth microdilution assay; format: functional
Klebsiella pneumoniae [10] = experiment: Synergistic antibacterial activity against Klebsiella pneumoniae ATCC 700603 assessed as FIC after 24 hrs in presence of colistin by checkerboard assay relative to test compound MIC; format: functional
Pseudomonas aeruginosa [11] = experiment: Synergistic antibacterial activity against Pseudomonas aeruginosa ATCC 27853 assessed as FIC after 24 hrs in presence of colistin by checkerboard assay relative to test compound MIC; format: functional
Acinetobacter baumannii [12] = experiment: Synergistic antibacterial activity against Acinetobacter baumannii ATCC BAA-1605 assessed as FIC after 24 hrs in presence of colistin by checkerboard assay relative to test compound MIC; format: functional
Escherichia coli [13] = experiment: Synergistic antimicrobial activity against Escherichia coli ATCC BAA 2469 assessed as FIC after 24 hrs in presence of colistin by checkerboard assay relative to test compound MIC; format: functional
Klebsiella pneumoniae [14] = experiment: Antibacterial activity against Klebsiella pneumoniae ATCC 700603 after 24 hrs by broth microdilution method; format: functional
Klebsiella pneumoniae [15] = experiment: Synergistic antibacterial activity against Klebsiella pneumoniae ATCC 700603 assessed as FIC after 24 hrs in presence of colistin by checkerboard assay relative to colistin; format: functional
Pseudomonas aeruginosa [16] = experiment: Synergistic antibacterial activity against Pseudomonas aeruginosa ATCC 27853 assessed as FIC after 24 hrs in presence of colistin by checkerboard assay relative to colistin; format: functional
Acinetobacter baumannii [17] = experiment: Synergistic antibacterial activity against Acinetobacter baumannii ATCC BAA-1605 assessed as FIC after 24 hrs in presence of colistin by checkerboard assay relative to colistin; format: functional
Escherichia coli [18] = experiment: Synergistic antimicrobial activity against Escherichia coli ATCC BAA 2469 assessed as FIC after 24 hrs in presence of colistin by checkerboard assay relative to colistin; format: functional
Pseudomonas aeruginosa [19] = experiment: Synergistic antibacterial activity against Pseudomonas aeruginosa ATCC 27853 assessed as FICI after 24 hrs in presence of colistin by checkerboard assay; format: functional
Acinetobacter baumannii [20] = experiment: Synergistic antibacterial activity against Acinetobacter baumannii ATCC BAA-1605 assessed as FICI after 24 hrs in presence of colistin by checkerboard assay; format: functional
Escherichia coli [21] = experiment: Synergistic antimicrobial activity against Escherichia coli ATCC BAA 2469 assessed as FICI after 24 hrs in presence of colistin by checkerboard assay; format: functional
Staphylococcus aureus [22] = experiment: Bactericidal activity against […] Staphylococcus aureus ATCC 700699 assessed as reduction in bacterial viability at 5 fold MIC incubated for 6 hrs by time kill assay relative to control; format: functional
Staphylococcus aureus [23] = experiment: Bactericidal activity against […] Staphylococcus aureus ATCC 700699 assessed as colony forming units at 5 fold MIC measured after 24 hrs by time kill assay; format: functional
Staphylococcus aureus [24] = experiment: Antibacterial activity against vancomycin-sensitive Staphylococcus aureus T144 infected in Balb/c mouse assessed as increase in wound healing at 5 mg/kg applied topically measured daily for 12 days by microscopic analysis; format: functional, organism-based; conditions: time 12.0 day
Staphylococcus aureus [25] = experiment: Antibacterial activity against vancomycin-sensitive Staphylococcus aureus T144 infected in Balb/c mouse peritonitis-sepsis model assessed as increase in survival at 5 mg/kg, ip measured for 48 hrs; format: functional, organism-based
[26] = Solubility of compound in pH 7.7 DMSO:PBS solution; format: physicochemical; conditions: buffer
Staphylococcus aureus [27] = experiment: Antibacterial activity against methicillin-resistant Staphylococcus aureus USA300 LAC at 0.15 to 25 uM incubated for 24 hrs under low glucose medium by resazurin dye based fluorescence assay; format: functional, organism-based; conditions: dose microM 0.15-25, time 24.0 hrs
Staphylococcus aureus [28] = experiment: Antibacterial activity against methicillin-resistant Staphylococcus aureus USA300 LAC at 0.15 to 25 uM incubated for 24 hrs under low pyruvate containing medium by resazurin dye based fluorescence assay; format: functional, organism-based; conditions: dose microM 0.15-25, time 24.0 hrs
Staphylococcus aureus [29] = experiment: Antibacterial activity against methicillin-resistant pyruvate kinase deficient Staphylococcus aureus USA300 LAC at 0.15 to 25 uM incubated for 24 hrs under low pyruvate containing medium by resazurin dye based fluorescence assay; format: functional, organism-based; conditions: dose microM 0.15-25, time 24.0 hrs
Staphylococcus aureus [30] = experiment: Inhibition of Staphylococcus aureus ATCC 700699 N-terminal His6-tagged pyruvate kinase expressed in Escherichia coli NiCo21(DE3) at 12.5 uM using phosphoenolpyruvate as substrate measured for 5 mins by LDH-coupled assay
Cell membrane [31] = experiment: Induction of cell membrane permeabilization in methicillin resistant Staphylococcus aureus ATCC 700699 at 5 fold MIC measured at 5 mins interval for 2 hrs by propidium iodide staining based fluorescence assay
Cell membrane [32] = experiment: Induction of cell membrane permeabilization in GFP-expressing Staphylococcus aureus ATCC 700699 assessed as increase in GFP efflux at 5 fold MIC measured after 6 hrs by fluorescence assay
Staphylococcus aureus [33] = experiment: Induction of cell lysis in Staphylococcus aureus ATCC 700699 assessed as decrease in turbidity at 8 fold MIC measured after 2 hrs by photometric method; format: functional, organism-based

In the case of `Clc1ccc2[nH]cc(-c3cccc(-c4c[nH]c5ccc(Cl)cc45)n3)c2c1`, the selectivity ratio [1] is reported as 32, the Activity (MRC5) is reported as “Toxic” and the Activity (THP-1) is reported as “Toxic”. For the same compound, the Activity (Enterococcus faecium) was “Active”, the Activity (Acinetobacter baumannii [2]) was “Active” and the Activity [3] was “Active”. The MIC90 (Staphylococcus aureus [4]) was 0.2 µM (≈ 0.0757 µg/mL), the solubility [5] was “Insoluble” and the selectivity ratio [6] was 32. The Activity (HEK293) was “Toxic”, the Activity (HepG2) was “Toxic” and the Activity [7] was “Toxic”. For the same compound, the Activity (Erythrocyte) was “Non-Toxic”, the MIC (Pseudomonas aeruginosa [8]) was greater than 100 µM and the MIC (Escherichia coli [9]) was greater than 100 µM. The FIC (Klebsiella pneumoniae [10]) was “<=0.125”, the FIC (Pseudomonas aeruginosa [11]) was “<=0.0625” and the FIC (Acinetobacter baumannii [12]) was “<=0.0625”. For the same compound, the FIC (Escherichia coli [13]) was “<=0.0313”, the MIC (Klebsiella pneumoniae [14]) was greater than 100 µM and the FIC (Klebsiella pneumoniae [15]) was 0.125. For the same compound, the FIC (Pseudomonas aeruginosa [16]) was 0.5, the FIC (Acinetobacter baumannii [17]) was 0.25 and the FIC (Escherichia coli [18]) was 0.064. For the same compound, the “fractional inhibitory concentration index (FICI)” value (Pseudomonas aeruginosa [19]) was “<=0.5625”, the “fractional inhibitory concentration index (FICI)” value (Acinetobacter baumannii [20]) was “<=0.3125” and the “fractional inhibitory concentration index (FICI)” value (Escherichia coli [21]) was “<=0.0953”. The “fold change (FC)” value (Staphylococcus aureus [22]) was 10000, the Activity (Staphylococcus aureus [23]) was less than 10 CFU/ml and the Activity (Staphylococcus aureus [24]) was “Active”. For the same compound, the Activity (Staphylococcus aureus [25]) was “Active”, the solubility [26] was “Insoluble” and the Activity (Staphylococcus aureus [27]) was “Active”. For the same compound, the Activity (Staphylococcus aureus [28]) was “Active”, the Activity (Staphylococcus aureus [29]) was “Active” and the inhibition (Staphylococcus aureus [30]) was “inactive”. For the same compound, the Activity (Cell membrane [31]) was “Active”, the Activity (Cell membrane [32]) was “Active” and the Activity (Staphylococcus aureus [33]) was “inactive”.
